Measurements published in US9249129B2, “Morpholino substituted urea derivatives as mTOR inhibitors” (CELLZOME LIMITED, priority 2010, dated 2016).

Legend:
Assay in all cases: kinobeads assay with mass spectrometry detection of kinases (kinase selectivity profile)
Assay type in all cases: binding
[1] = target: T1, kinases (kinome) (Homo sapiens, UniProt Q02750); settings: MAP2K1 (STE), IPI00219604
T1 construct: determined in kinobeads assays with mass spectrometry detection of kinases as described previously; endogenous in cells; host or cells: cell lysate
Text: (§1) The protein kinase complement of the human genome (the kinome) was described previously (Manning et al., 2002. Science 298(5600):1912-1934). Sequence accession numbers are defined by the International Protein Index (IPI) (Kersey et al., 2004. Proteomics 4(7):1985-1988).

[2] = target: T2, kinases (kinome) (Homo sapiens, UniProt O60674); settings: JAK2 (TK), IPI00031016
T2 construct: determined in kinobeads assays with mass spectrometry detection of kinases as described previously; endogenous in cells; host or cells: cell lysate
Text: as §1

[3] = target: T3, kinases (kinome) (Homo sapiens, UniProt O15197); settings: EphB6 (TK), IPI00005222
T3 construct: determined in kinobeads assays with mass spectrometry detection of kinases as described previously; endogenous in cells; host or cells: cell lysate
T3 sequence (O15197 32-1021): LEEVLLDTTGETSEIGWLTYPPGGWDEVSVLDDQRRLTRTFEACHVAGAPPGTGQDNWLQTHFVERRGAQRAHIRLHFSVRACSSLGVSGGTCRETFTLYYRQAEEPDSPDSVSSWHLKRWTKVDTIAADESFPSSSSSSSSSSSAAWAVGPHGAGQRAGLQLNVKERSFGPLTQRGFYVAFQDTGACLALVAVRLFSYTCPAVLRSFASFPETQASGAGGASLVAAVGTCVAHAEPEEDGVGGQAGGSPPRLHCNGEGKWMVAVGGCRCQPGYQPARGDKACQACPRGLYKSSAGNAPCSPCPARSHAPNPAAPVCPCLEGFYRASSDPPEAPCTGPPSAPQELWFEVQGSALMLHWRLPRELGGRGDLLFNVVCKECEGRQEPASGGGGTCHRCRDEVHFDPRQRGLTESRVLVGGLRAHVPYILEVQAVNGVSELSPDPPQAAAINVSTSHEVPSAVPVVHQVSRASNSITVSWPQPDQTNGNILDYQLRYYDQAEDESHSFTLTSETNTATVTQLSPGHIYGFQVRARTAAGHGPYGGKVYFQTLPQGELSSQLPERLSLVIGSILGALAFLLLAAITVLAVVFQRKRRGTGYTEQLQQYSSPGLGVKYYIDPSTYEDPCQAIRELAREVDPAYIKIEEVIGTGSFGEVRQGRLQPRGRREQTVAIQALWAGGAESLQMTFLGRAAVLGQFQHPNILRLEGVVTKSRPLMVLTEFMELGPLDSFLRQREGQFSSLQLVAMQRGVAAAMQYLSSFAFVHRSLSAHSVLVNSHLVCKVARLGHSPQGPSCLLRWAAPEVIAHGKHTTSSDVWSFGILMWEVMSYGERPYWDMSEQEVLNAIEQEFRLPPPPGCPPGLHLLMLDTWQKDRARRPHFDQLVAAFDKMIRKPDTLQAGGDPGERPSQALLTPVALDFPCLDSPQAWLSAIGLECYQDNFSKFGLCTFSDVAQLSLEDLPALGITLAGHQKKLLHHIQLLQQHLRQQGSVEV
Text: as §1

[4] = target: T4, kinases (kinome) (Homo sapiens, UniProt P06493); settings: CDC2 (CMGC), IPI00026689
T4 construct: determined in kinobeads assays with mass spectrometry detection of kinases as described previously; endogenous in cells; host or cells: cell lysate
Text: as §1

[5] = target: T5, kinases (kinome) (Homo sapiens, UniProt P43403); settings: ZAP70 (TK), IPI00329789
T5 construct: determined in kinobeads assays with mass spectrometry detection of kinases as described previously; endogenous in cells; host or cells: cell lysate
T5 sequence (P43403 1-619): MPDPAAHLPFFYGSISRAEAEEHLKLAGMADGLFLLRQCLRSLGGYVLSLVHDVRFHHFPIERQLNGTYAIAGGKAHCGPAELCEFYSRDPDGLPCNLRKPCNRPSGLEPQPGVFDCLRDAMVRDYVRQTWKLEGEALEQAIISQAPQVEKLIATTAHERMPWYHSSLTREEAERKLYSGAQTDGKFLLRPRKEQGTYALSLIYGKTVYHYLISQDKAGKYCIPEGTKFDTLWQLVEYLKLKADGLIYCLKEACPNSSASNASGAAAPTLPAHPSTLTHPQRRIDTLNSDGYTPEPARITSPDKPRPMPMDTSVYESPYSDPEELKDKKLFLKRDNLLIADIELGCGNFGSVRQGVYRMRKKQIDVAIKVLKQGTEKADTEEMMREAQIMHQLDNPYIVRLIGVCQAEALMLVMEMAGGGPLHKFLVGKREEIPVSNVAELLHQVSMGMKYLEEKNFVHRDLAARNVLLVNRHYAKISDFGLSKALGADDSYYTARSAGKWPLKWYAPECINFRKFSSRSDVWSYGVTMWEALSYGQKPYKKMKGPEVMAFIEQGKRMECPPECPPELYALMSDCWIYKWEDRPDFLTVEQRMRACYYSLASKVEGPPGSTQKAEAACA
Text: as §1

[6] = target: T6, kinases (kinome) (Homo sapiens, UniProt O94768); settings: DRAK2 (CAMK), IPI00916930
T6 construct: determined in kinobeads assays with mass spectrometry detection of kinases as described previously; endogenous in cells; host or cells: cell lysate
T6 sequence (O94768 1-372): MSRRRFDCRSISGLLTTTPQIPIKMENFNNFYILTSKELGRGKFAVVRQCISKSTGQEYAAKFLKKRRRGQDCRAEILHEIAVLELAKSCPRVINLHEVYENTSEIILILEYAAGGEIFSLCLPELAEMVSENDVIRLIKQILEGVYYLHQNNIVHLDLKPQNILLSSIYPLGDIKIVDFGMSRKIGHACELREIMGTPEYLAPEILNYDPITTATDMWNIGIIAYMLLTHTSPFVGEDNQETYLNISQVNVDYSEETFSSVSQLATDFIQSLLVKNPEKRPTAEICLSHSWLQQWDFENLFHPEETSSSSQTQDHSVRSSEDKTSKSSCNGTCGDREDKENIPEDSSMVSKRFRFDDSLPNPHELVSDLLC
Text: as §1

[7] = target: T7, kinases (kinome) (Homo sapiens, UniProt Q8TBX8); settings: PIP5K2C (Lipid Kinase), IPI00152303
T7 construct: determined in kinobeads assays with mass spectrometry detection of kinases as described previously; endogenous in cells; host or cells: cell lysate
T7 sequence (Q8TBX8 1-421): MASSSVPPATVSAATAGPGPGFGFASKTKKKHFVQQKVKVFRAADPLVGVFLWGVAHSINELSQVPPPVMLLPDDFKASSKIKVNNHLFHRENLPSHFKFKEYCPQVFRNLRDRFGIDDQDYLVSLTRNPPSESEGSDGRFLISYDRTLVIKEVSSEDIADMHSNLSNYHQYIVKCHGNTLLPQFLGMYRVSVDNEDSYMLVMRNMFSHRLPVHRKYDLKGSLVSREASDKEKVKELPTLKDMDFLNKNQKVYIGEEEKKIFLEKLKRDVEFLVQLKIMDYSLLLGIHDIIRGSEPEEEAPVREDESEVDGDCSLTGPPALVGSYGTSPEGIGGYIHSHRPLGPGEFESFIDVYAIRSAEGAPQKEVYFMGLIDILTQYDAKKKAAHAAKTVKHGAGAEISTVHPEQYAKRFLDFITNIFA
Text: as §1

[8] = target: T8, kinases (kinome) (Homo sapiens, UniProt P51812); settings: RSK2 (AGC), IPI00020898
T8 construct: determined in kinobeads assays with mass spectrometry detection of kinases as described previously; endogenous in cells; host or cells: cell lysate
Text: as §1

Measured: IC50

T1 sequence (Q02750 whole entry): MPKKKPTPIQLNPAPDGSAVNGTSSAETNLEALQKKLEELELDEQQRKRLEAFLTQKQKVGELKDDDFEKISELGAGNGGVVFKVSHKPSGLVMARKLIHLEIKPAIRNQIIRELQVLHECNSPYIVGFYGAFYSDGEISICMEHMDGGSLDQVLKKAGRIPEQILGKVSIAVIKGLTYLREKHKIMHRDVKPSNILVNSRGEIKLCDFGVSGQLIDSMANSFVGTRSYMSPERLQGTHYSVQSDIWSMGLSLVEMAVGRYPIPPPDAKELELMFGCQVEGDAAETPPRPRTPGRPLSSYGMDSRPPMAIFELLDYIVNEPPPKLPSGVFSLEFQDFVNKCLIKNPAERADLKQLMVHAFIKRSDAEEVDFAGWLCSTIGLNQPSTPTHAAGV
T4 sequence (P06493 whole entry): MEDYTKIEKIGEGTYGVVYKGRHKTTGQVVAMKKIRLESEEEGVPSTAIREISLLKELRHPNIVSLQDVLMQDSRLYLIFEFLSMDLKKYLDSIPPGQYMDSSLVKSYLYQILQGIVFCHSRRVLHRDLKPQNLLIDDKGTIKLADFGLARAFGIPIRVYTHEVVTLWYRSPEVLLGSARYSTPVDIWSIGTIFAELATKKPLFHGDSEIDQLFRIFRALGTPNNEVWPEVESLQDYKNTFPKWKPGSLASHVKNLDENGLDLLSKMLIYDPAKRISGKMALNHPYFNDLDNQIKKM
T8 sequence (P51812 whole entry): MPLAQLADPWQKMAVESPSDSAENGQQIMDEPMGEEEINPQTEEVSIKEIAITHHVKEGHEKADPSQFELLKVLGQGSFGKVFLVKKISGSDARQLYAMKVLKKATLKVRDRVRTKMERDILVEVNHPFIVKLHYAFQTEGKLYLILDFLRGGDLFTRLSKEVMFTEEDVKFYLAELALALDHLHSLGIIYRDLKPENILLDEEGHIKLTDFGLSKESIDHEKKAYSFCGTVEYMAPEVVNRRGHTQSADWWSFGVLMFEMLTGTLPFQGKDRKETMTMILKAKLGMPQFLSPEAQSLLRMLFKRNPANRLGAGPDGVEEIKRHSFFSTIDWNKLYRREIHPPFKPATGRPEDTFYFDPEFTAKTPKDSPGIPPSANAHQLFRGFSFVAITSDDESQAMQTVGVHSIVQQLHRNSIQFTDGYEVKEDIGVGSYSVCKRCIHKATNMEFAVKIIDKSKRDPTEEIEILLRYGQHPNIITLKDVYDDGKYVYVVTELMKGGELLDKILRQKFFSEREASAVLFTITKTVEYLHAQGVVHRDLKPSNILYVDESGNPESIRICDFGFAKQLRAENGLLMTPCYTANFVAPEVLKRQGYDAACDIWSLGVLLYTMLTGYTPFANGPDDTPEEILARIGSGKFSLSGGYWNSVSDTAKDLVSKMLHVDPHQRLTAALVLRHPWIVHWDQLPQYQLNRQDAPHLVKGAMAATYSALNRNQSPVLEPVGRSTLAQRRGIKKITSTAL
T2 sequence (O60674 whole entry): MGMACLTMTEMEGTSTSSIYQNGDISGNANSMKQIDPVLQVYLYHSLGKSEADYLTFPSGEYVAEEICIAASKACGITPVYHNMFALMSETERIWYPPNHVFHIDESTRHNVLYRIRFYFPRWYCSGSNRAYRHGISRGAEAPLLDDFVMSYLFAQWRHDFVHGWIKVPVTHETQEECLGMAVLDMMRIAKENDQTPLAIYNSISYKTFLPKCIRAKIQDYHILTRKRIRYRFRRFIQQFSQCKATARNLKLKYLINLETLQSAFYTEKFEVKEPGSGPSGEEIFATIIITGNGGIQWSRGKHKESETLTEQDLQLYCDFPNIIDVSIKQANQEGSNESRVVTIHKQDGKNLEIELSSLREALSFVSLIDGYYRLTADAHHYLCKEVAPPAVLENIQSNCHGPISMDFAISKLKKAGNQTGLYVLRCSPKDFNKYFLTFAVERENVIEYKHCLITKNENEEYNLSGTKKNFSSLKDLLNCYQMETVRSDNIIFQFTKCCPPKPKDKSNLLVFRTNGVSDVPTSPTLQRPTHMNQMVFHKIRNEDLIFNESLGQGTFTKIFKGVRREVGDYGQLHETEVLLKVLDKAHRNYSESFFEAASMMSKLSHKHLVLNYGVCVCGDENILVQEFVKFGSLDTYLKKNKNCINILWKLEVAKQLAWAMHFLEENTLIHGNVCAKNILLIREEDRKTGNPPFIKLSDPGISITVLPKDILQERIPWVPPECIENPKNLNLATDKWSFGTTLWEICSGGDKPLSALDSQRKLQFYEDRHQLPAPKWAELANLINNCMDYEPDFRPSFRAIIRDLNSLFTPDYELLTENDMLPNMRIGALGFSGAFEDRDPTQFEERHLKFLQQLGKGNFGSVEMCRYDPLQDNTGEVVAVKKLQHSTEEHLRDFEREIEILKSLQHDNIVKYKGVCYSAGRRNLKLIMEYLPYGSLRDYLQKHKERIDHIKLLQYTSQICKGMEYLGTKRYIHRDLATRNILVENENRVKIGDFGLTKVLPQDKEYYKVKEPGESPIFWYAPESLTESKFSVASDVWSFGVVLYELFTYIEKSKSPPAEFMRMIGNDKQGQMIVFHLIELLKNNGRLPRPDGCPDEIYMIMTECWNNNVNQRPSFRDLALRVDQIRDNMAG

C[C@H]1COCCN1c1nc(-c2ccc(NC(=O)NC3CC3)cc2)cc(-c2cccnc2S(C)(=O)=O)n1 [Example 46, (S)-1-cyclopropyl-3-(4-(2-(3-methylmorpholino)-6-(2-(methylsulfonyl)pyridin-3-yl)pyrimidin-4-yl)phenyl)urea]
not listed: [8]
> 10 µM: all other assays above

C[C@H]1COCCN1c1nc(-c2ccc(NC(=O)NC3CC3)cc2)cc(-c2ccccc2S(C)(=O)=O)n1 [Example 4, (S)-1-cyclopropyl-3-(4-(2-(3-methylmorpholino)-6-(2-(methylsulfonyl)phenyl)pyrimidin-4-yl)phenyl)urea]
not listed: [2] | [7]
> 10 µM: all other assays above

C[C@H]1COCCN1c1nc(-c2ccc(NC(=O)N[C@H]3CCC[C@@H]3O)cc2)cc(-c2cc(F)ccc2S(C)(=O)=O)n1 [Example 76, 1-(4-(6-(5-fluoro-2-(methylsulfonyl)phenyl)-2-((S)-3-methylmorpholino)pyrimidin-4-yl)phenyl)-3-((1S,2S)-2-hydroxycyclopentyl)urea]
> 10 µM: [1] | [4] | [7]

C[C@H]1COCCN1c1cc(-c2ccccc2S(C)(=O)=O)nc(-c2ccc(NC(=O)NC3CC3)cc2)n1 [Example 6, (S)-1-cyclopropyl-3-(4-(4-(3-methylmorpholino)-6-(2-(methylsulfonyl)phenyl)pyrimidin-2-yl)phenyl)urea]
> 10 µM: [3]

C[C@H]1COCCN1c1cc(-c2ccccn2)nc(-c2ccc(NC(=O)NCCO)cc2)n1 [Example 43, (S)-1-(2-hydroxyethyl)-3-(4-(4-(3-methylmorpholino)-6-(pyridin-2-yl)pyrimidin-2-yl)phenyl)urea]
> 10 µM: [1] | [5] | [7]

C[C@H]1COCCN1c1nc(-c2ccc(NC(=O)NC3CC3)cc2)cc(-c2cc(F)ccc2S(C)(=O)=O)n1 [Example 40, (S)-1-cyclopropyl-3-(4-(6-(5-fluoro-2-(methylsulfonyl)phenyl)-2-(3-methylmorpholino)pyrimidin-4-yl)phenyl)urea]
> 10 µM: all assays above
